Legend:
[1] = system: Gli3 processing in Shh-EGFP cells; assay: Quantitative assessment of Hh ligand-dependent Gli3 processing; assay type: cell-based; details: Shh-EGFP cells stimulated with Shh-N, 16 hours
Procedure: Shh-EGFP cells were seeded into 12-well plate at a density of 120,000 cells/well in DMEM containing 10% calf serum. 100 U/mL penicillin, and 0.1 mg/mL streptomycin. After being cultured for 24 hours, the cells were transferred into DMEM containing 0.5% calf serum, 10% Shh-conditioned medium, the antibiotics described above, and either individual compounds or DMSO. The cells were cultured for an additional 16 hours, washed with PBS, and then lysed by incubation on ice with SDS-PAGE loading buffer composed of 8% glycerol, 20 mM Tris-HCl, pH 6.8, 2% SDS, 100 mM DTT, 1 mM PMSF, 20 mM NaF, 2 mM Na3VO4, and an EDTA-free protease inhibitor cocktail (Roche). The lysed samples were heated to 100° C. for 7 minutes, loaded onto 3-8% Criterion XT Tris-Acetate polyacrylamide gels (Bio-Rad), electrophoresed in XT Tricine buffer (Bio-Rad), and transferred onto PVDF membranes. The membranes were dehydrated with methanol and probed overnight at 4° C. with goat polyclonal anti-Gli3 antibody (0.4 μg/mL: R & D Systems, AF3690) in PBS containing 4% non-fat dry milk and 0.1% Tween-20 (immunoblot blocking buffer). The blots were then washed 4×1 minutes in PBS and incubated with horseradish peroxidase-conjugated bovine polyclonal anti-goat IgG antibody (0.04 μg/mL, Jackson ImmunoResearch, 805-035-180) in immunoblot blocking buffer for 1 hour at room temperature. The membranes were next washed 4×1 minutes in PBS and visualized using SuperSignal West Dura Extended Duration substrate (Thermo Scientific) and a ChemiDoc XRS imaging system (Bio-Rad). Band intensities of Gli3FL and Gli3R where quantified using Quantity One software (Bio-Rad), and five independent experiments were used to determine the average Gli3FL/Gli3R ratio for each compound.

[2] = target: T1, K560, N-terminal fragment of human conventional kinesin (kinesin-1) (Homo sapiens, UniProt P33176); assay: Microtubule surface gliding assay, K560/kinesin-1; assay type: biochemical; details: 100 μM
T1 construct: K560, a 560-amino acid N-terminal fragment of human conventional kinesin (kinesin-1); His-tag (C); made in house; host or cells: bacteria
T1 sequence (P33176 1-560): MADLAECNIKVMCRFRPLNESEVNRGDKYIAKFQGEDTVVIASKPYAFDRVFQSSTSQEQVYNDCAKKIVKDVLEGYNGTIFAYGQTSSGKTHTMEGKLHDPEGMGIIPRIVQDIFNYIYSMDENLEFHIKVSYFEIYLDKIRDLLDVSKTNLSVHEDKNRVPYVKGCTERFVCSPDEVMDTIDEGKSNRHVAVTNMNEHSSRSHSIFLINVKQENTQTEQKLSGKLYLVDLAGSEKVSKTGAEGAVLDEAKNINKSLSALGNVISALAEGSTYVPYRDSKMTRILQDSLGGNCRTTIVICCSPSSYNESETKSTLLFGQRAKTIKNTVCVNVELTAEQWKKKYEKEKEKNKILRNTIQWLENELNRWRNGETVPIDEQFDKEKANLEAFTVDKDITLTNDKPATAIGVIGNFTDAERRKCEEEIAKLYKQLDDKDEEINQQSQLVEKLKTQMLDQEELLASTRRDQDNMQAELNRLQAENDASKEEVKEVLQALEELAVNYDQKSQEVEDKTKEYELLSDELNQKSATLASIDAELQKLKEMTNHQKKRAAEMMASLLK
Procedure: Cytoplasmic dynein was purified from bovine brains as described by Bingham et al. [Methods Enzymol. 298, 171 (1998)]. K560, a 560-amino acid N-terminal fragment of human conventional kinesin (kinesin-1) with a C-terminal His-tag, was expressed in bacteria and purified as described by Woehlke et al., [Cell 90, 207 (1997)]. Motility assays were performed on a Zeiss Axiovert 200M wide-field microscope equipped with a Zeiss 100×/1.45 NA α-Plan-Fluar objective. Data were captured with an EM-CCD camera (iXon DU-897, Andor Technology) with a 0.3-second exposure time and frame rate of 0.5 second^−1. Microtubule gliding assays were performed as described by Kapoor and Mitchison [Proc. Natl. Acad. Sci. U.S.A. 96, 9106 (1999)] with some modifications. An approximately 6 μL flow chamber was filled with motor protein (100 μg/mL dynein or 50 μg/mL K560) in motor dilution buffer (80 mM Pipes, 1 mM EGTA, 2 mM MgCl2, 2 mM DTT, 50 μM ATP, pH 6.8 with KOH). […] After allowing the microtubules to bind to the surface for 5 minutes, the gliding microtubules were visualized by time-lapse fluorescence microscopy. Velocities were measured by kymography using Metamorph software (Molecular Devices), and the velocity for each microtubule was determined from the total distance during the time observed.

[3] = system: Xenopus melanophores; assay: Melanosome aggregation assay; assay type: cell-based; details: for melanosome aggregation: melatonin-induced aggregation
Text: Another cytoplasmic dynein 1-dependent process is the aggregation of melanin-containing vesicles in pigment cells, the mechanism by which certain organisms adapt their coloration in response to environmental cues. For example, cytoplasmic dynein 1 transports melanosomes toward the center of Xenopus melanophores stimulated with the small-molecule melatonin, counterbalancing the kinesin-2- and myosin-V-driven dispersal of these pigment granules toward the cell periphery in response to melanocyte-stimulating hormone (MSH). To determine if melanosome trafficking is sensitive to the ciliobrevins, we cultured Xenopus melanophores with MSH to uniformly disperse their melanosomes and then treated them with melatonin and various concentrations of test compounds.
Immortalized Xenopus melanophores were cultured in 0.7×L15 medium supplemented with 10% fetal bovine serum, 30 mg/L L-glutamine, and 5 mg/L insulin. The cell were cultured on poly-D-lysine-coated coverslips in 12-well plates for 12 to 24 hours prior to the melanosome aggregation assay. On the day of the experiment, the melanophores were cultured in serum-free medium for 30 minutes, stimulated with 100 nM melanocyte-stimulating hormone (MSH) to uniformly disperse the melanosomes, and then incubated with medium containing individual compounds or DMSO for 10 minutes. Melanosome aggregation was then induced by treating the cells with 10 nM melatonin in the presence of the test compound. The melanophores were either imaged immediately by time-lapse microscopy or fixed after 30 minutes with 0.7×PBS containing 4% paraformaldehyde.
The cells were then washed several times with medium containing melatonin alone and imaged.

Row | SMILES | Gli3FL/Gli3R ratio [1] | Shh-N-dependent Gli3FL phosphorylation [1] | K560/kinesin-1-dependent microtubule gliding [2] | melanosome aggregation ([3]; concentrations up to 40 μM) | melanosome aggregation ([3]; 10 μM dose) | reversibility of effect on melanosome aggregation (washout) ([3]; washout into medium containing melatonin alone)
1 | N#C/C(C(=O)c1ccc(Cl)cc1Cl)=C1\NC(=O)c2ccccc2N1 [Example 1, 3-(2,4-dichlorophenyl)-3-oxo-2-(4-oxo-3,4-dihydroquinazolin-2(1H)-ylidene)propanenitrile] | altered the Gli3FL/Gli3R ratio | reduced | Neither ciliobrevin significantly affected |  |  | 
2 | N#C/C(C(=O)c1ccccc1)=C1\NC(=O)c2ccccc2N1 [Example 16, 3-oxo-2-(4-oxo-3,4-dihydroquinazolin-2(1H)-ylidene)-3-phenylpropanenitrile] |  |  |  | no discernible effect |  | 
3 | N#C/C(C(=O)c1ccc(Cl)cc1Cl)=C1\NC(=O)c2ccc(Cl)cc2N1 [Example 31, 2-(7-chloro-4-oxo-3,4-dihydroquinazolin-2(1H)-ylidene)-3-(2,4-dichlorophenyl)-3-oxo-propanenitrile] | altered the Gli3FL/Gli3R ratio | reduced | Neither ciliobrevin significantly affected |  | significantly inhibited melanosome aggregation | completely reversible

From patent US9145376B2, “Quinazolinone inhibitors of dynein” (The Rockefeller University, priority 2011, dated 2015)
